Data reported in ChEMBL document CHEMBL5380821, “Discovery of a PDZ Domain Inhibitor Targeting the Syndecan/Syntenin Protein-Protein Interaction: A Semi-Automated "Hit Identification-to-Optimization" Approach” (J Med Chem, 2023).
pIC50, pKd: −log10 of the molar value. Calls of active or inactive are those of the source. No cut-off for these calls is given here.

Columns and labels:
Syntenin-1/Syndecan-2 = Syntenin-1/Syndecan-2 (Homo sapiens, UniProt O00560); experiment: Inhibition of full length N-terminal GST-tagged human syntenin-1 expressed in Escherichia coli ER2566/syndecan2 (unknown origin) interaction incubated for 16 hrs by HTRF assay
Sequence of Syntenin-1/Syndecan-2 (P34741 whole entry, one chain of several, further chain): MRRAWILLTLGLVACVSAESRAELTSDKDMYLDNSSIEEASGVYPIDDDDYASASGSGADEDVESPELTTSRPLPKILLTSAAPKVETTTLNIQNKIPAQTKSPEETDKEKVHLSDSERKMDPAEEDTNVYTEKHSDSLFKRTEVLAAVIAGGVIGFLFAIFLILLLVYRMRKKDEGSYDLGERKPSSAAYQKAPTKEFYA

[1] = molecular target: GRASP55-JAMB (Homo sapiens) (UniProt Q9H8Y8+P57087); experiment: Inhibition of N-terminal GST-tagged GRASP55 (unknown origin) expressed in Escherichia coli BL21 (DE3) cells/JAM-B (unknown origin) complex incubated for 16 hrs by HTRF assay
Sequence of GRASP55-JAMB (Homo sapiens) (P57087 whole entry, looked up, other chains not shown): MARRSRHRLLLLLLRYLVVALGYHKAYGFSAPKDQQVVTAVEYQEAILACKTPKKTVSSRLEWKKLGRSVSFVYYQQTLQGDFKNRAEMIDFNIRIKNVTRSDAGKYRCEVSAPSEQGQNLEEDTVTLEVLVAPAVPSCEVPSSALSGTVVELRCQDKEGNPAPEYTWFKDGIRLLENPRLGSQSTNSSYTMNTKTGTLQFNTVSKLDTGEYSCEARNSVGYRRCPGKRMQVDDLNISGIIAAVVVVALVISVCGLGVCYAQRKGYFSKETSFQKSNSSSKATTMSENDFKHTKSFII

[2] = molecular target: ERBIN-P0071 (Homo sapiens) (UniProt Q96RT1+Q99569); experiment: Inhibition of N-terminal GST-tagged Erbin (unknown origin) expressed in Escherichia coli BL21 (DE3) cells/P0071 (unknown origin) complex incubated for 16 hrs by HTRF assay
Sequence of ERBIN-P0071 (Homo sapiens) (Q96RT1 whole entry, looked up): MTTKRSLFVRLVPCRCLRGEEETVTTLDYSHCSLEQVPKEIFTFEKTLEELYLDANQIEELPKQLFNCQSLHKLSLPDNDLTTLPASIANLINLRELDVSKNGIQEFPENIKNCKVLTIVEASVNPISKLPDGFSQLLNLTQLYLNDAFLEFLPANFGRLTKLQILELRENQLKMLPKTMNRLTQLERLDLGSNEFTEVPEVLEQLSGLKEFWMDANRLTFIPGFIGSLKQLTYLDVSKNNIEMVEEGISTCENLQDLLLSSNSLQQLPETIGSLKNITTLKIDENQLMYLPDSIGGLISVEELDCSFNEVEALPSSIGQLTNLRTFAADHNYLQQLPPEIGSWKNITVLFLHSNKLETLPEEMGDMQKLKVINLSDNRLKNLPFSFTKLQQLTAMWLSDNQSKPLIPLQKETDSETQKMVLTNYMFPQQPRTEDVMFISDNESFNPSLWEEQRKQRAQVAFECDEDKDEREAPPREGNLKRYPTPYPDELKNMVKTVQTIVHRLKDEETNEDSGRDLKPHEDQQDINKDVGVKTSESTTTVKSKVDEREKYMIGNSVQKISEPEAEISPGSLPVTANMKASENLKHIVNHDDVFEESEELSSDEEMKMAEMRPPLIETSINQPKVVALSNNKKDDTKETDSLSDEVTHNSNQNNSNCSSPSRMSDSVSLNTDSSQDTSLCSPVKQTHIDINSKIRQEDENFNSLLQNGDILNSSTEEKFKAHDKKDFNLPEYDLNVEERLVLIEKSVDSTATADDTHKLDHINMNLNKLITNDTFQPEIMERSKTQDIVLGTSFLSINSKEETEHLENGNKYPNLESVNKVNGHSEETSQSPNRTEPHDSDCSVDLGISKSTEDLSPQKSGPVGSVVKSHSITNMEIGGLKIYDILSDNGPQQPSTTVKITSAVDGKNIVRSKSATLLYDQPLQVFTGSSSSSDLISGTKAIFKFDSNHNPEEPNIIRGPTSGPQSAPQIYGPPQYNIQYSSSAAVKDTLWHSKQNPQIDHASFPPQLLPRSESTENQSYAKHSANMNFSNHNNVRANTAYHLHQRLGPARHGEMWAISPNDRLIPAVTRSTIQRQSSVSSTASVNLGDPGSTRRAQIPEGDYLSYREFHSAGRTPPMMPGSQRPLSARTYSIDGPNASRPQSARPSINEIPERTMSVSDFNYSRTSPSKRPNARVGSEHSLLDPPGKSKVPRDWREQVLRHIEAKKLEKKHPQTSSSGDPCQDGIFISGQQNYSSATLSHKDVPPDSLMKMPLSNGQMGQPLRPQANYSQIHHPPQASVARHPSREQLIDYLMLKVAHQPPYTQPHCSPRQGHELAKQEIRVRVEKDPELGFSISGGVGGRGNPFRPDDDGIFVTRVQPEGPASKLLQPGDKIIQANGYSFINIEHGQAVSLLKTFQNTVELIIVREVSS
Sequence of ERBIN-P0071 (Homo sapiens) (Q99569 whole entry, looked up): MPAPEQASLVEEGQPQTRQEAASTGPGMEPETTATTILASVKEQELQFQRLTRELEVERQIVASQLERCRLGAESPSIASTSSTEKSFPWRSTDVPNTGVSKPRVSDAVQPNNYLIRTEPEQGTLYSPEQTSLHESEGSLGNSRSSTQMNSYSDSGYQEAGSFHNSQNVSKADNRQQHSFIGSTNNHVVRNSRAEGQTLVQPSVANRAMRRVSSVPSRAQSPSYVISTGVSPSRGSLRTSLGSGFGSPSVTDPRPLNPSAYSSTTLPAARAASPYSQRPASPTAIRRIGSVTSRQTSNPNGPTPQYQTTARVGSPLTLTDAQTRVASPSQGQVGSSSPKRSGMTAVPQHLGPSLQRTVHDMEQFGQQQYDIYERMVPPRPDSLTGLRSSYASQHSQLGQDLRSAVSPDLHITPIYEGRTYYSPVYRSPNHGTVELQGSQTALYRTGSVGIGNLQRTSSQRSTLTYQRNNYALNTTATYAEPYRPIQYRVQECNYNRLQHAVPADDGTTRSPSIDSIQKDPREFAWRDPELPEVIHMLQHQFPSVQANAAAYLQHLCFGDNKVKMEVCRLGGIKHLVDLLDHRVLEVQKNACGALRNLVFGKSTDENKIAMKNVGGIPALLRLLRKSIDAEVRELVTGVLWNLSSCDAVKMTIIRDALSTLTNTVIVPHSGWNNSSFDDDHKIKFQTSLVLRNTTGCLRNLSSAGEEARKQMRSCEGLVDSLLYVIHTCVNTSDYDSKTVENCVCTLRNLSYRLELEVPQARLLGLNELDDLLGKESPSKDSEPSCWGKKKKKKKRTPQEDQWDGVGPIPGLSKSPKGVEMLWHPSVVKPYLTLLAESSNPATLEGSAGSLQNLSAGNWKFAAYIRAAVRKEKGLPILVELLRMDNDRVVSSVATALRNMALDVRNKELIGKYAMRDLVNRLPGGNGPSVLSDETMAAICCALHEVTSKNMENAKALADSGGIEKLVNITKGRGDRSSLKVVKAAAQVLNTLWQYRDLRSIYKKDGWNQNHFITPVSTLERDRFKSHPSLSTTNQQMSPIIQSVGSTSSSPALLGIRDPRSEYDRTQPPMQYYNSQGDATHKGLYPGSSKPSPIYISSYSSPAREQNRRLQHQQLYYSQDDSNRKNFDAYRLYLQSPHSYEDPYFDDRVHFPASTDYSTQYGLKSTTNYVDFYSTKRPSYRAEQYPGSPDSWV

MDA-MB-231 [3] = experiment: Cytotoxicity against wild-type human MDA-MB-231 cells assessed as reduction in cell viability upto 100 uM measured after 48 hrs by Annexin V-FITC staining based flow cytometric analysis; assay type: functional
MDA-MB-231 [4] = experiment: Cytotoxicity against human MDA-MB-231 cells with syntenin CRISPR/Cas9 knockout assessed as reduction in cell viability upto 100 uM measured after 48 hrs by Annexin V-FITC staining based flow cytometric analysis; assay type: functional
MDA-MB-231 [5] = experiment: Inhibition of cell migration in wild-type human MDA-MB-231 cells assessed as decrease in migration speed at 100 uM incubated for 24 hrs by 2D phase contrast video microscopic analysis; assay type: functional, cell-based
MDA-MB-231 [6] = experiment: Inhibition of cell migration in wild-type human MDA-MB-231 cells assessed as decrease in euclidean distance at 100 uM incubated for 24 hrs by 2D phase contrast video microscopic analysis; assay type: functional, cell-based
MDA-MB-231 [7] = experiment: Inhibition of cell migration in human MDA-MB-231 cells with syntenin CRISPR/Cas9 knockout assessed as decrease in migration speed at 100 uM incubated for 24 hrs by 2D phase contrast video microscopic analysis; assay type: functional, cell-based
MDA-MB-231 [8] = experiment: Inhibition of cell migration in human MDA-MB-231 cells with syntenin CRISPR/Cas9 knockout assessed as decrease in euclidean distance at 100 uM incubated for 24 hrs by 2D phase contrast video microscopic analysis; assay type: functional, cell-based
[9] = molecular target: T1, Syntenin-1/Syndecan-2 (Homo sapiens) (UniProt O00560+P34741); experiment: Inhibition of full length N-terminal GST-tagged human syntenin-1 expressed in Escherichia coli ER2566/syndecan2 (unknown origin) interaction at 200 uM incubated for 16 hrs by HTRF assay relative to control
[10] = molecular target: T1, Syntenin-1/Syndecan-2 (Homo sapiens); experiment: Inhibition of full length N-terminal GST-tagged human syntenin-1 expressed in Escherichia coli ER2566/syndecan2 (unknown origin) interaction at 200 uM incubated for 16 hrs in the presence of NP-40 by HTRF assay
Syntenin-1 = molecular target: T2, Syntenin-1 (Homo sapiens, UniProt O00560); experiment: Binding affinity to full length N-terminal GST-tagged human syntenin-1 expressed in Escherichia coli ER2566 assessed as dissociation constant by ITC analysis
T2 sequence (O00560 whole entry): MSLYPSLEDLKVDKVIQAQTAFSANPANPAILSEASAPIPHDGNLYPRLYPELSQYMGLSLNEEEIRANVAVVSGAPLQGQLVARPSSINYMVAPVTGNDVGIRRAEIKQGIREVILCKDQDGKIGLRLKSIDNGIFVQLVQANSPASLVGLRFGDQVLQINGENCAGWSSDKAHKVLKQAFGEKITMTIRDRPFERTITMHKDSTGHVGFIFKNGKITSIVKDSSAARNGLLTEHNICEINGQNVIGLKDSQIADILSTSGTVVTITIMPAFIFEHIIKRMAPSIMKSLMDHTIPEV

MDA-MB-231 [11] = experiment: Inhibition of cell migration in wild-type human MDA-MB-231 cells assessed as decrease in migration speed at 1 to 10 uM incubated for 24 hrs by 2D phase contrast video microscopic analysis; assay type: functional, cell-based; details: dose 1-10 µM
MDA-MB-231 [12] = experiment: Inhibition of cell migration in wild-type human MDA-MB-231 cells assessed as decrease in euclidean distance at 1 to 10 uM incubated for 24 hrs by 2D phase contrast video microscopic analysis; assay type: functional, cell-based; details: dose 1-10 µM

SMILES | pIC50 (Syntenin-1/Syndecan-2) | other results
CC(C)[C@@H](C(=O)N[C@@H](C)C(=O)O)N1Cc2ccccc2C1=O | 4.12 | inhibition [1]: inactive; inhibition [2]: inactive; Activity (MDA-MB-231 [3]): inactive; Activity (MDA-MB-231 [4]): inactive; inhibition (MDA-MB-231 [5]): Active; inhibition (MDA-MB-231 [6]): Active; inhibition (MDA-MB-231 [7]): inactive; inhibition (MDA-MB-231 [8]): inactive; inhibition [9]: > 60%; inhibition [10]: Active
CC(=O)Nc1ccc(-c2ccc(C[C@@H](C(=O)N[C@@H](C)C(=O)O)N3Cc4ccccc4C3=O)cc2)cc1 | 5.11 | 
O=C(O)[C@H](Cc1ccccc1)NC(=O)[C@H](Cc1ccccc1)N1Cc2ccccc2C1=O | < 3.30 | 
CC(C)C[C@H](NC(=O)[C@H](C(C)C)N1Cc2ccccc2C1=O)C(=O)O | < 3.30 | 
CCOC(=O)C(Cc1c[nH]c2ccccc12)NC(=O)C(Cc1ccccc1)N1C(=O)c2ccccc2C1=O (centres undefined) |  | inhibition [9]: > 60%
CC(C)[C@@H](C(=O)N[C@@H](C)C(=O)O)N1Cc2c(Cl)cccc2C1=O | < 3.70 | 
CC[C@H](C)[C@H](NC(=O)[C@H](C(C)C)N1Cc2ccccc2C1=O)C(=O)O | < 3.30 | 
C[C@H](NC(=O)[C@H](Cc1ccc2ccccc2c1)N1Cc2cc(Br)ccc2C1=O)C(=O)O | 5.28 | 
C[C@H](NC(=O)[C@H](Cc1ccc(-c2ccc3occc(=O)c3c2)cc1)N1Cc2ccccc2C1=O)C(=O)O | 5.40 | 
CC(C)[C@H](NC(=O)[C@H](C(C)C)N1Cc2ccccc2C1=O)C(=O)O | < 3.30 | 
CCOc1ccc2[nH]c(=O)c(CN(C3CCCCC3)C(CC)c3nnnn3C(C)(C)C)cc2c1 (centres undefined) |  | inhibition [9]: > 60%
CC(C)C[C@H](NC(=O)[C@H](Cc1ccccc1)N1Cc2ccccc2C1=O)C(=O)O | < 3.30 | 
Cc1ccc(C[C@@H](C(=O)N[C@@H](C)C(=O)O)N2Cc3ccccc3C2=O)cc1 | < 3.70 | 
C[C@H](NC(=O)[C@H](Cc1ccccc1)NC(=O)c1cc2cc(Cl)ccc2n1C)C(=O)O |  | inhibition [9]: > 60%
CC(C)[C@@H](C(=O)N[C@@H](C)C(=O)O)N1Cc2cc(Cl)ccc2C1=O | 4.85 | 
C[C@H](NC(=O)[C@H](Cc1ccc(C#N)cc1)N1Cc2ccccc2C1=O)C(=O)O | 3.74 | 
C[C@H](NC(=O)[C@H](Cc1ccc2ccccc2c1)N1Cc2ccccc2C1=O)C(=O)O | 4.89 | 
COc1cc2cc(C(=O)N(C)CCOc3cccc(Cl)c3)[nH]c2c(OC)c1OC |  | inhibition [9]: > 60%
CC(C)[C@@H](C(=O)N[C@@H](C)C(=O)O)N1Cc2ccc(Br)cc2C1=O | < 3.70 | 
CC(C)[C@@H](C(=O)N[C@@H](C)C(=O)O)N1Cc2cc(Br)ccc2C1=O | 4.70 | 
COc1ccccc1NC(=O)N1CCCC(c2nc(O)c3nnn(Cc4ccc(C)cc4)c3n2)C1 (centres undefined) |  | inhibition [9]: > 60%
C[C@H](NC(=O)[C@H](Cc1ccc(-c2ccc3c(c2)C(=O)N(C)C3)cc1)N1Cc2ccccc2C1=O)C(=O)O | 5.20 | 
C[C@H](NC(=O)[C@H](Cc1ccc(O)cc1)N1Cc2ccccc2C1=O)C(=O)O | 4.36 | 

SMILES | pIC50 (Syntenin-1/Syndecan-2) | other results
C[C@H](NC(=O)[C@H](Cc1ccc(Cl)cc1)N1Cc2ccccc2C1=O)C(=O)O | 4.11 | 
CC(C)C[C@@H](C(=O)N[C@H](C(=O)O)C(C)C)N1Cc2ccccc2C1=O | < 3.30 | 
CC(=O)c1ccc(F)c(-c2ccc(C[C@@H](C(=O)N[C@@H](C)C(=O)O)N3Cc4ccccc4C3=O)cc2)c1 | 5.38 | 
CC[C@H](C)[C@H](NC(=O)[C@H](CC(C)C)N1Cc2ccccc2C1=O)C(=O)O | < 3.30 | 
C[C@H](NC(=O)[C@H](Cc1ccccc1)N1Cc2ccccc2C1=O)C(=O)O | 4.17 | 
C[C@H](NC(=O)[C@H](Cc1ccc(Br)cc1)N1Cc2ccccc2C1=O)C(=O)O | 4.46 | 
CC(C)[C@H](NC(=O)[C@H](Cc1ccccc1)N1Cc2ccccc2C1=O)C(=O)O | < 3.30 | inhibition (MDA-MB-231 [5]): Active; inhibition (MDA-MB-231 [6]): Active
COc1ccc(F)c(-c2ccc(C[C@@H](C(=O)N[C@@H](C)C(=O)O)N3Cc4ccccc4C3=O)cc2)c1 | 5.00 | 
CCOc1nc2ccccc2nc1N1CCCC(C(=O)N2CCc3ccccc3C2)C1 (centres undefined) |  | inhibition [9]: > 60%
CC(=O)c1ccc(F)c(-c2ccc(C[C@@H](C(=O)N[C@@H](C)C(=O)O)N3Cc4cc(Br)ccc4C3=O)cc2)c1 | 6.40 | inhibition [1]: inactive; inhibition [2]: inactive; pKd (Syntenin-1): 5.74; Activity (MDA-MB-231 [3]): inactive; Activity (MDA-MB-231 [4]): inactive; inhibition (MDA-MB-231 [5]): Active; inhibition (MDA-MB-231 [6]): Active; inhibition (MDA-MB-231 [7]): inactive; inhibition (MDA-MB-231 [8]): inactive; inhibition (MDA-MB-231 [11]): Active; inhibition (MDA-MB-231 [12]): Active
C[C@H](NC(=O)[C@H](Cc1ccc(-c2cc(CO)ccc2F)cc1)N1Cc2cc(Br)ccc2C1=O)C(=O)O | 5.82 | 
CC(=O)Nc1ccc(-c2ccc(C[C@@H](C(=O)N[C@@H](C)C(=O)O)N3Cc4cc(Br)ccc4C3=O)cc2)cc1 | 6.09 | 
CC(C)C[C@@H](C(=O)N[C@@H](C)C(=O)O)N1Cc2ccccc2C1=O | 3.67 | 
CC[C@H](C)[C@H](NC(=O)[C@H](Cc1ccccc1)N1Cc2ccccc2C1=O)C(=O)O | < 3.30 | 
C[C@H](NC(=O)[C@H](Cc1c[nH]c2ccccc12)N1Cc2ccccc2C1=O)C(=O)O | 4.48 | 
C[C@H](NC(=O)C(CSCc1ccccc1)N1Cc2ccccc2C1=O)C(=O)O (single isomer, unassigned) | 4.20 | 
COc1ccc(C[C@@H](C(=O)N[C@@H](C)C(=O)O)N2Cc3ccccc3C2=O)cc1 | 3.89 | 
CC(C)C[C@H](NC(=O)[C@H](CC(C)C)N1Cc2ccccc2C1=O)C(=O)O | < 3.30 | 
CC(C)C[C@@H](C(=O)N[C@@H](Cc1ccccc1)C(=O)O)N1Cc2ccccc2C1=O | < 3.30 | 
CC(C)[C@@H](C(=O)N[C@@H](Cc1ccccc1)C(=O)O)N1Cc2ccccc2C1=O | < 3.30 | 
C[C@H](NC(=O)[C@H](Cc1ccc(-c2cc(CO)ccc2F)cc1)N1Cc2ccccc2C1=O)C(=O)O | 5.28 | 
CC(Oc1ccc(-c2cc(N)nc3[nH]ccc23)cc1Cl)C(=O)O (centres undefined) |  | inhibition [9]: > 60%
C[C@H](NC(=O)[C@H](Cc1ccc(-c2ccccc2F)cc1)N1Cc2ccccc2C1=O)C(=O)O | 5.00 | 
